# Test results published in PubChem BioAssay AID1845197 (Molecular Pharmacology Branch, DTP, NCI, 2023).
# Values joined by “and” are separate entries in the source; they are usually repeats but may differ in a detail not shown here. Equal values may be shown once.
# Tested on: 349418-098-R tumor spheroid viability
# Experiment: Anticancer human tumor 349418-098-R patient-derived lung adenocarcinoma cell line growth inhibition
# Conditions: spheroids with HUVEC and MSC; for viability, T/C: stronger effect = lower value
# Method in brief: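 Single agents and combinations were tested on spheroids built from tumor cells plus HUVEC and hMSC, at half-log dilutions starting at or near clinical Cmax, else 10 microM; final DMSO 0.25% (v/v).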
# 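Note: spheroids exposed to compound for 7 days before measurement.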
# 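Throughout, for viability, T/C: percent of vehicle control viability with 100% = DMSO-treated spheroids.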
smiles,measurement,setting,value
O=C(c1cc(Cc2n[nH]c(=O)c3ccccc23)ccc1F)N1CCN(C(=O)C2CC2)CC1 + CC[C@@]1(O)C(=O)OCc2c1cc1n(c2=O)Cc2cc3c(CN(C)C)c(O)ccc3nc2-1,IC50,"curve of first compound, second compound 0.003 µM",27.4 µM
same,IC50,"curve of first compound, second compound 0.00949 µM",23.4 µM
same,IC50,"curve of first compound, second compound 0.03 µM",4.08 µM
same,IC50,"curve of first compound, second compound 0.0949 µM",< 0.0949 µM
same,IC50,"curve of first compound, second compound 0.3 µM",< 0.0949 µM
same,"viability, T/C","second compound 0.003 µM, first compound 0.0949 µM",102%
same,"viability, T/C","second compound 0.003 µM, first compound 0.3 µM",96.3%
same,"viability, T/C","second compound 0.003 µM, first compound 0.949 µM",98%
same,"viability, T/C","second compound 0.003 µM, first compound 3 µM",97.6%
same,"viability, T/C","second compound 0.003 µM, first compound 9.49 µM",76%
same,"viability, T/C","second compound 0.003 µM, first compound 30 µM",47.8%
same,"viability, T/C","second compound 0.00949 µM, first compound 0.0949 µM",99.2%
same,"viability, T/C","second compound 0.00949 µM, first compound 0.3 µM",101%
same,"viability, T/C","second compound 0.00949 µM, first compound 0.949 µM",97.8%
same,"viability, T/C","second compound 0.00949 µM, first compound 3 µM",94.3%
same,"viability, T/C","second compound 0.00949 µM, first compound 9.49 µM",72.6%
same,"viability, T/C","second compound 0.00949 µM, first compound 30 µM",43.8%
same,"viability, T/C","second compound 0.03 µM, first compound 0.0949 µM",67.3%
same,"viability, T/C","second compound 0.03 µM, first compound 0.3 µM",72.8%
same,"viability, T/C","second compound 0.03 µM, first compound 0.949 µM",61.5%
same,"viability, T/C","second compound 0.03 µM, first compound 3 µM",58.8%
same,"viability, T/C","second compound 0.03 µM, first compound 9.49 µM",29.8%
same,"viability, T/C","second compound 0.03 µM, first compound 30 µM",12.8%
same,"viability, T/C","second compound 0.0949 µM, first compound 0.0949 µM",19.8%
same,"viability, T/C","second compound 0.0949 µM, first compound 0.3 µM",21.7%
same,"viability, T/C","second compound 0.0949 µM, first compound 0.949 µM",20.8%
same,"viability, T/C","second compound 0.0949 µM, first compound 3 µM",18%
same,"viability, T/C","second compound 0.0949 µM, first compound 9.49 µM",12%
same,"viability, T/C","second compound 0.0949 µM, first compound 30 µM",7.08%
same,"viability, T/C","second compound 0.3 µM, first compound 0.0949 µM",3.58%
same,"viability, T/C","second compound 0.3 µM, first compound 0.3 µM",3.79%
same,"viability, T/C","second compound 0.3 µM, first compound 0.949 µM",4.35%
same,"viability, T/C","second compound 0.3 µM, first compound 3 µM",4.53%
same,"viability, T/C","second compound 0.3 µM, first compound 9.49 µM",3.36%
same,"viability, T/C","second compound 0.3 µM, first compound 30 µM",3.46%
COc1ccc([C@@H](O)c2cc(-c3ncnc4cc(N5CCOCC5)ccc34)c(F)cc2Cl)nn1,"viability, T/C",compound 0.0316 µM,106% and 101% and 93.8%
same,"viability, T/C",compound 0.1 µM,97.6% and 102% and 111%
same,"viability, T/C",compound 0.316 µM,105% and 103% and 114%
same,"viability, T/C",compound 1 µM,112% and 102% and 111%
same,"viability, T/C",compound 3.16 µM,88% and 62.7% and 101%
same,"viability, T/C",compound 10 µM,30.2% and 29% and 33.6%
same,IC50,curve of compound,6.74 µM and 4.89 µM and 7.57 µM
